Data taken from US20230391817A1, “5ALPHA-HYDROXY-6BETA-[2-(1-H-IMIDAZOL-4-YL)-ETHYLAMINO]-CHOLESTAN-3BETA-OL ANALOGUES AND PHARMACEUTICAL COMPOSITIONS COMPRISING SAME FOR USE IN THE TREATMENT OF CANCER” (priority 2020, published 2023).
Where two headings read alike, the source gives them in different places.

Columns and labels:
[1] = Oral pharmacokinetic study in rat, LC/MS assay in plasma (Examples 21-24); format: in vivo; conditions: 50 mg/kg
Experimental: The following study is an LC/MS assay in plasma of the various molecules over 3 days (11 measurement points in the end). The graphs are always presented in comparison with DX101 which is the reference.
Plasma sampling at 0 (without injection), 5, 10, 15, 30 min, 1 h, 4 h, 8 h, 24 h, 48 h, 72 h (11 points)

[2] = Pharmacokinetics and bioavailability, oral and I.V., in rats (Example 28); format: in vivo; conditions: rat
Experimental: Plasma sampling at 0 (without injection), 15, 30 min, 1 h, 4 h, 8 h, 24 h, 48 h, 72 h

MCF-7 breast tumor cells = assay: Microscope observation of treated MCF-7 cells; format: cell-based
Experimental: A cell viability test was performed on MCF-7 (Michigan Cancer Foundation-7) breast tumor cells […] (ER(+) cells).
The MCF-7 cells are in a cell culture medium identical to that of Example 5 and are seeded in 12-well plates at 50 000 cells per well. 24 hours after seeding, the cells are treated with vehicle solvate comprising water and ethanol with a 1% o ratio of ethanol, 3β-fluoro-5α-hydroxy-6β-[2-(1H-imidazol-4-yl)ethylamino]cholestane, and 5α-hydroxy-6β-[2-(1H-imidazol-4-yl)ethylamino]cholestan-3β-ol at 1, 2.5 or 5 μM. The cells are observed under an inverted microscope and photographed via the microscope camera at 24 h and 48 h. The morphological changes in the cells at 1 μM are very small. […] The effects are more marked at 2.5 μM and 5 μM with an increase in the number of dead cells. […] After 24 h of treatment with 3β-fluoro-5α-hydroxy-6β-[2-(1H-imidazol-4-yl)ethylamino]-cholestane at 5 μM, 99% of the observed cells are supernatant, reflecting cell death, and 1% of the cells are adherent and show white vesicles. […] The cytostatic effect is illustrated by an inhibition of cell proliferation.

[3] = tested on: BT-474 human mammary tumor cells; assay: Cell viability of BT-474 cells, trypan blue; format: cell-based; conditions: BT-474, Trypan Blue, 48 h; for Mean LogIC50 (±SEM): log of IC50 in μM; for IC50: Homo sapiens
Experimental: Cell viability tests were also performed on BT-474 human mammary tumor cells (characterized as triple positive HER2+, ER+, PR+). The BT-474 cells were in a cell culture medium identical to the previous example and seeded in 24-well plates at 70 000 cells per well for cell viability determination using trypan blue, or in 96-well plates at 13 000 cells per well for cell viability determination using the MTT or LDH assay. After 96 hours (h) of culture under normal conditions, i.e. in an incubator at 37° C. with […], BT-474 cells were treated for 48 h with DX101, DX103, DX105, DX111, DX123 and DX127 at 100 nM, 1 μM, 2.5 μM and 10 μM. A control is also performed using the protocol described previously without treatment with DX101, DX103, DX105, DX111, DX123 and DX127.
After a 10-minute trypsin digestion at 37° C., the cell survival was also quantified by means of a trypan blue test with automatic counting using the Biorad TC20 machine (TC20™ Automated Cell Counter). The trypan blue test is based on the integrity of cell membranes, which is disrupted in the dead cells. Trypan blue stains dead cells blue. The Biorad TC20 cell counter counts the proportion of blue and non-blue cells, and reports the percentage of cells. The percentage of viability is then determined in each well relative to the untreated cells and the IC50 is determined as explained in the preceding example. Also, the percentage viability of the BT-474 cells was determined using the MTT and LDH assay, performed as described in the preceding example.

[4] = tested on: murine 4T1 mammary tumor cells; assay: Cell viability of 4T1 cells, CellTox Green Cytotoxicity Assay; format: cell-based; conditions: Mus musculus, 4T1, Green Cytotoxicity Assay, 48 h
Experimental: Cell viability tests were performed on murine 4T1 mammary tumor cells characterized as triple negative (HER2-, ER-, PR-).
For this experiment, a cell culture medium was prepared. The culture medium consisted of Dulbecco's Modified Eagle Medium (DMEM, sold by Westburg as LO BE12-604F), comprising 4.5 g/L glucose with L-glutamine, to which 10% fetal calf serum (FCS) and 50 U/ml penicillin/streptomycin are added. The 4T1 cells were introduced into this culture medium.
96-well plates were seeded with 2000 4T1 cells per well. After 72 hours (h) of culture under normal condition, i.e. in an incubator at 37° C. at […], the 4T1 cells were treated for 48 h with DX101, DX103, DX111, DX123, DX125, DX127 and DX129 at 100 nM, 1 μM, 2.5 μM and 10 μM. A control condition (CTL) is also performed in parallel using the previously described protocol without treatment with the molecules DX101, DX103, DX111, DX123, DX125, DX127 or DX129.
For the third method, the percentage viability is determined using the CellTox Green Cytotoxicity Assay kit (Promega). This assay measures cell death via a change in membrane integrity. […] Consequently, the higher the fluorescence in the wells, the greater the cell death. […] The percentage of cell death is determined using the 100% cell death control (made from untreated cells incubated in the presence of the lysis solution for 30 minutes at 37° C. prior to the addition of Celltox green reagent), and the cell viability in each well is then deduced from this percentage. The IC50 is then determined as explained previously.

[5] = log of IC50 in μM, read-out: Mean LogIC50 (±SEM) (converted)

CC(C)CCC[C@@H](C)[C@H]1CC[C@H]2[C@@H]3C[C@@H](NCCc4c[nH]cn4)[C@@]4(O)C[C@@H](F)CC[C@]4(C)[C@H]3CC[C@]12C [DX111, 3β-fluoro-5α-hydroxy-6β-[2-(1H-imidazol-4-yl)ethylamino]cholestane]
Area under the curve ([1]; in vivo, po): 368921 | Max concentration ([1]; in vivo, po): 515 nM | Time for Cmax ([1]; in vivo, po): 240 min | bioavailability / extent of absorption compared with DX101 ([1]; in vivo, po): three-fold higher absorption | maximum concentration compared with DX101 ([1]; in vivo, po): higher maximum concentration | speed of absorption compared with DX101 ([1]; in vivo, po): faster absorption | bioavailability ([2]; in vivo): 10% | ASC(t0-tlast) ([2]; in vivo, iv, 5 mg/kg): 3516 | Cmax ([2]; in vivo, iv, 5 mg/kg): 2970 ng/mL | clearance ([2]; in vivo, iv, 5 mg/kg): 25 mL/min/kg | half-life ([2]; in vivo, iv, 5 mg/kg): 21 h | Vd ([2]; in vivo, iv, 5 mg/kg, Vd): 43 L/kg | Vd ([2]; in vivo, iv, 5 mg/kg, Vss): 12 L/kg | bioavailability compared with DX101 ([2]; in vivo, po): three-fold higher bioavailability | clearance compared with DX101 ([2]; in vivo, po): halved | maximum plasma concentration compared with DX101 ([2]; in vivo, po): four times higher | ASC(t0-tlast) ([2]; in vivo, po, 50 mg/kg): 3228 | Cmax ([2]; in vivo, po, 50 mg/kg): 309 ng/mL | Tmax ([2]; in vivo, po, 50 mg/kg): 4 h | clearance ([2]; in vivo, po, 50 mg/kg): 240 mL/min/kg | half-life ([2]; in vivo, po, 50 mg/kg): 24 h | morphological changes in the cells (MCF-7 breast tumor cells; 1 μM, 24 h): Only a few white vesicles | morphological changes in the cells (MCF-7 breast tumor cells; 2.5 μM, 24 h): numerous white vesicles and detached cells | cytostatic effect compared with 24 h (MCF-7 breast tumor cells; 2.5 μM, 48 h): stronger cytostatic effect | cells that are adherent and show white vesicles (MCF-7 breast tumor cells; 5 μM, 24 h): 1% | observed cells that are supernatant (cell death) (MCF-7 breast tumor cells; 5 μM, 24 h): 99% | morphological changes in the cells (MCF-7 breast tumor cells; 5 μM, 48 h): all the cells are supernatant | effect compared with 5α-hydroxy-6β-[2-(1H-imidazol-4-yl)ethylamino]cholestan-3β-ol (MCF-7 breast tumor cells; 24 h of observation): greater or equal effect | effect compared with 5α-hydroxy-6β-[2-(1H-imidazol-4-yl)ethylamino]cholestan-3β-ol (MCF-7 breast tumor cells; 48 h of observation): similar | Mean LogIC50 (±SEM) [3]: 0.78 ± 0.15 | IC50 [3]: 5960 nM | IC50 [4, 5]: 2.19 µM | IC50 ([4]; read-out: IC50): 2.18 µM

CC(C)CCC[C@@H](C)[C@H]1CC[C@H]2[C@@H]3C[C@@H](NCCc4c[nH]cn4)[C@@]4(O)C[C@@H](O)CC[C@]4(C)[C@H]3CC[C@]12C [DX101, 5α-hydroxy-6β-[2-(1H-imidazol-4-yl)ethylamino]cholestan-3β-ol, reference compound]
Area under the curve ([1]; oral, plasma, Example 24): 3019 | Max concentration ([1]; oral, plasma, Example 24): 150 nM | Area under the curve ([1]; oral, plasma, Examples 21-23): 143297 | Max concentration ([1]; oral, plasma, Examples 21-23): 140 nM | clearance ([2]; plasma, iv, 5 mg/kg, read-out: Clearance): 11 mL/min/kg | half-life ([2]; plasma, iv, 5 mg/kg, read-out: T½ 2nd phase (converted)): 28 h | bioavailability ([2]; plasma, po 50 mg/kg versus iv 5 mg/kg, read-out: F %): 3% | half-life ([2]; plasma, po, 50 mg/kg, read-out: T½ 2nd phase (converted)): 39 h | ASC(t0-tlast) ([2]; iv, 5 mg/kg, plasma): 6205 | Cmax ([2]; iv, 5 mg/kg, plasma, read-out: Cmax): 3310 ng/mL | Vd ([2]; plasma, iv, 5 mg/kg, iv, 5 mg/kg, read-out: Vd): 29 L/kg | Vd ([2]; plasma, iv, 5 mg/kg, iv, 5 mg/kg, read-out: Vss): 19 L/kg | clearance ([2]; po, 50 mg/kg): 412 mL/min/kg | ASC(t0-tlast) ([2]; po, 50 mg/kg, plasma): 1546 | Cmax ([2]; po, 50 mg/kg, plasma, read-out: Cmax): 77 ng/mL | Tmax ([2]; po, 50 mg/kg, plasma, read-out: Tmax): 4 h | morphological changes in the cells (MCF-7 breast tumor cells; 1 μM, 24 h): Only a few white vesicles | Mean LogIC50 (±SEM) [3]: 0.61 ± 0.20 | IC50 [3]: 4030 nM | IC50 [4, 5]: 2.69 µM | IC50 ([4]; read-out: IC50): 2.68 µM
